Values quoted from earlier work, collected in patent US20040142823A1, “Adjuvant compositions and pesticides” (priority 2003, published 2004).
Where two headings read alike, the source gives them in different places.

SMILES: CNC(=O)CSP(=S)(OC)OC [Cygon, dimethoate]
- Time to lose 50 percent of pest control power (mixed in water of pH 9): 48 min
- Time to lose 50 percent of pest control power (pH of 6): 720 min
